Data reported in patent US9611269B2, “Azetidinyl phenyl, pyridyl or pyrazinyl carboxamide derivatives as JAK inhibitors” (Incyte Corporation, priority 2011, dated 2017).

How the values were obtained:
Format in all cases: biochemical
[1] = target: human JAK2 (a.a. 828-1132) catalytic domain (Homo sapiens (Human), UniProt O60674); experiment: In vitro JAK kinase assay (HTRF, 1 mM ATP), JAK2; settings: at 1 mM ATP
Description: (§1) The catalytic activity of JAK1, JAK2 or JAK3 was assayed by measuring the phosphorylation of a biotinylated peptide. The phosphorylated peptide was detected by homogenous time resolved fluorescence (HTRF). […] Reactions were carried out at room temperature for 1 hour and then stopped with 20 μL 45 mM EDTA, 300 nM SA-APC, 6 nM Eu-Py20 in assay buffer (Perkin Elmer, Boston, Mass.). Binding to the Europium labeled antibody took place for 40 minutes and HTRF signal was measured on a Fusion plate reader (Perkin Elmer, Boston, Mass.).

[2] = target: human JAK1 (a.a. 837-1142) catalytic domain (Homo sapiens, UniProt P23458); experiment: In vitro JAK kinase assay (HTRF, 1 mM ATP), JAK1; settings: at 1 mM ATP;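 note: kinase activity followed as phosphorylation of a biotin-tagged peptide, detected by HTRF with Eu-labelled anti-phosphotyrosine antibody and SA-APC, after 1 h reaction at room temperature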
Description: as §1

[3] = test system: human JAK1 (a.a. 837-1142) catalytic domain; experiment: In vitro JAK kinase assay (HTRF, 1 mM ATP), JAK1; settings: ratio of JAK2 IC50 to JAK1 IC50 at 1 mM ATP;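 note: kinase activity followed as phosphorylation of a biotin-tagged peptide, detected by HTRF with Eu-labelled anti-phosphotyrosine antibody and SA-APC, after 1 h reaction at room temperature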
Description: as §1

Chain of human JAK2 (a.a. 828-1132) catalytic domain (O60674 828-1132): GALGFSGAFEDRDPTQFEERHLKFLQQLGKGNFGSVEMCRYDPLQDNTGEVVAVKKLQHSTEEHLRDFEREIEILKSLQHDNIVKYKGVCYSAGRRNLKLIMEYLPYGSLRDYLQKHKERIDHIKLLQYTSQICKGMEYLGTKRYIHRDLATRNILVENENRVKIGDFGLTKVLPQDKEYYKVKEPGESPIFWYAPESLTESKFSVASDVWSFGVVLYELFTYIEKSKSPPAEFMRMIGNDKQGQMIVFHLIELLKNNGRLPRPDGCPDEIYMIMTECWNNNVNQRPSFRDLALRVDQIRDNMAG
Chain of human JAK1 (a.a. 837-1142) catalytic domain (Homo sapiens, UniProt P23458) (P23458 whole entry, looked up, the tested form may be a part): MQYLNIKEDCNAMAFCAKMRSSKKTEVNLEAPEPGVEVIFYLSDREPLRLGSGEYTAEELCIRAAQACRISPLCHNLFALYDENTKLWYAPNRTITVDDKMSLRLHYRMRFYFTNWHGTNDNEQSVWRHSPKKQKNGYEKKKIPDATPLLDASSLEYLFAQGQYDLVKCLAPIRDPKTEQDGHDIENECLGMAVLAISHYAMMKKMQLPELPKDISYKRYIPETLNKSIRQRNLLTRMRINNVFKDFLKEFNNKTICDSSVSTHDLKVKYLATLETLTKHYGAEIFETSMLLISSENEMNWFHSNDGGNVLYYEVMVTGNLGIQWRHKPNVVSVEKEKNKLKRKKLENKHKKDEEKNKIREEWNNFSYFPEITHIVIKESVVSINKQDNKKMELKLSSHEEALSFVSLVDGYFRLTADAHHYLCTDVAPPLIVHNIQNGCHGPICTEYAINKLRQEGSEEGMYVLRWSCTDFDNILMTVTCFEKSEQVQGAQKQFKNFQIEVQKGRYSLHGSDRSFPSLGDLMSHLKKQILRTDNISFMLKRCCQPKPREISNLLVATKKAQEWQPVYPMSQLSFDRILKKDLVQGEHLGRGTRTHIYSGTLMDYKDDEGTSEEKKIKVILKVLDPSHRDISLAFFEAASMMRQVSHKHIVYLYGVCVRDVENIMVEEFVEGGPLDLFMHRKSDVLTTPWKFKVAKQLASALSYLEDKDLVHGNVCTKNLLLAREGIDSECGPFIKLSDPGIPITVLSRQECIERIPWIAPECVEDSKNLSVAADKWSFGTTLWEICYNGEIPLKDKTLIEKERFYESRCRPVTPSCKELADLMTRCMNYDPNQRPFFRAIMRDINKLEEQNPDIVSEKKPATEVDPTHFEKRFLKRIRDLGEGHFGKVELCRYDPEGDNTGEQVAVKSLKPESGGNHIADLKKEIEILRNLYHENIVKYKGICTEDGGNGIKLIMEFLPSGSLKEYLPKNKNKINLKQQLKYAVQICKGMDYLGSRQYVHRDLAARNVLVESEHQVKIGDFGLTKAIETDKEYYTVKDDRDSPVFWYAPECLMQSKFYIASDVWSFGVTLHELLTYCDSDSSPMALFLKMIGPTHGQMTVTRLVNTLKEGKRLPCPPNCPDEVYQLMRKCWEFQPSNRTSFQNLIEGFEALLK

Row | IC50 [1] | IC50 [2] | JAK2/JAK1 [3] | Structure (SMILES)
1 | 10 to 40 nM | < 10 nM | A (A means greater than or equal to 10) | N#CCC1(n2cc(-c3ncnc4[nH]ccc34)cn2)CN(c2ccc(C(=O)N[C@@H](C3CC3)C(F)(F)F)cc2)C1 [Example 38, 4-{3-(Cyanomethyl)-3-[4-(7H-pyrrolo[2,3-d]pyrimidin-4-yl)-1H-pyrazol-1-yl]azetidin-1-yl}-N-[(1S)-1-cyclopropyl-2,2,2-trifluoroethyl]benzamide]
2 | ≤ 10 nM | < 10 nM | A (A means greater than or equal to 10) | CC(C)NC(=O)c1ccc(N2CC(CC#N)(n3cc(-c4ccnc5[nH]ccc45)cn3)C2)c(F)c1 [Example 27, 4-{3-(Cyanomethyl)-3-[4-(1H-pyrrolo[2,3-b]pyridin-4-yl)-1H-pyrazol-1-yl]azetidin-1-yl}-3-fluoro-N-isopropylbenzamide]
